Common to all, as to settings: in vivo
The test system of data set [1] is Mus musculus. In words: Neurotoxicity in mouse assessed as distress at 160 mg/kg, ip. It counts as toxicity, organism-based. Further details: dose 160 mg/kg, route intraperitoneal.
Data set [2] has as its system Mus musculus. In words: Neurotoxicity in mouse assessed as ataxia at 160 mg/kg, ip. The arrangement: dose 160 mg/kg, route intraperitoneal. It counts as toxicity, organism-based.
Data set [3] concerns Mus musculus. In words: Neurotoxicity in mouse assessed as labored breathing at 160 mg/kg, ip. It counts as toxicity, organism-based. Further details: dose 160 mg/kg, route intraperitoneal.
The test system of data set [4] is Mus musculus. In words: Neurotoxicity in mouse assessed as tremorgenic activity at 160 mg/kg, ip. It counts as toxicity, organism-based. The arrangement: dose 160 mg/kg, route intraperitoneal.
A short description of data set [5]: Toxicity in ip dosed mouse. It counts as organism-based.

Consider `C=CC(C)(C)[C@@]12C[C@H]3C(=O)N[C@H](CC(C)C)C(=O)N3[C@H]1N(C(C)=O)c1ccccc12` [VERRUCOFORTINE], for which the Activity result in data set [1], in data set [2], in data set [3] and in data set [4] was “Non-toxic” throughout.

For the compound `COc1c(C)c([C@]2(C)O[C@H]2/C(C)=C/C(C)=C/[C@]2(C)O[C@H](C)[C@@]3(C)O[C@H]32)oc(=O)c1C` [VERRUCOSIDIN], in data set [5], the LD50 is 4 mg/kg.

By LD50 is commonly meant the dose at which mortality reaches 50%. A higher LD50 goes with a less toxic substance.

The values above are taken from ChEMBL document CHEMBL1150742, “Verrucofortine, a major metabolite of Penicillium verrucosum var. cyclopium, the fungus that produces the mycotoxin verrucosidin” (J Nat Prod, 1988).
